Results reported in PMC8162404, “Proteomimetic surface fragments distinguish targets by function” (Chemical Science, 2020).
Like-named read-outs stand apart in the source and are kept apart here.

Columns and labels:
Experiment in all cases: Pull-down assay with immobilized protein and LSM libraries
CaM = biological target: T1, CaM (Bos taurus, UniProt P62157); assay type: binding, bovine
T1 construct: made in house; host or cells: E. coli BL21 (DE3)
How it was run: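 His-tagged protein immobilized on Co-NTA resin, equilibrated 30 min at room temperature with LSM sublibraries (64 members, […]), equimolar protein to total probe. CaM buffer: 20 mM HEPES pH 7.4, 150 mM NaCl, 5 mM CaCl2. Bound fractions from HPLC-MS loss of unbound probe versus protein-free resin control; Kd derived.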

Gal-1 = biological target: T2, Gal-1 (Homo sapiens, UniProt P09382); assay type: binding; conditions: 1:1 binding assumed, read-out: Surface mapping KD (apparent)
T2 construct: made in house; host or cells: E. coli BL21(DE3)
How it was run: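 His-tagged protein immobilized on Co-NTA resin (64 µM) in 20 mM HEPES pH 7.4, 150 mM NaCl, equilibrated 30 min at room temperature with foldamer LSM sublibraries at equimolar total concentration. Unbound fractions quantified by HPLC-MS versus protein-free resin control; apparent KD assumes 1:1 binding.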

S100A4 = biological target: T3, S100A4 (Homo sapiens, UniProt P26447); assay type: binding; conditions: 1:1 binding assumed, read-out: Surface mapping KD (apparent)
T3 construct: made in house; host or cells: Escherichia coli BL21(DE3)
How it was run: (§1)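 Buffers were HEPES pH 7.4 with 150 mM NaCl, plus 1 mM TCEP and 1 mM CaCl2 (50 mM HEPES) for S100A4 and S100B, 1 mM TCEP for Gal-1, and no additive for RecQ-WH. Immobilized protein at 64 µM was equilibrated 30 min with the LSM sublibrary, and unbound probes were measured by LC-MS.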

S100B = biological target: T4, S100B (Homo sapiens, UniProt P04271); assay type: binding; conditions: 1:1 binding assumed, read-out: Surface mapping KD (apparent)
T4 construct: made in house; host or cells: Escherichia coli BL21(DE3)
T4 sequence (P04271 1-92): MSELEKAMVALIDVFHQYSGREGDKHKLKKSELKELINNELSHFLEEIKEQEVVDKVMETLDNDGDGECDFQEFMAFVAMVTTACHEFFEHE
How it was run: as §1

[1] = H12 library, 1:2 stoichiometry assumed, read-out: Surface mapping KD (apparent)
[2] = H14 library, 1:2 stoichiometry assumed, read-out: Surface mapping KD (apparent)

T2 sequence (P09382 whole entry): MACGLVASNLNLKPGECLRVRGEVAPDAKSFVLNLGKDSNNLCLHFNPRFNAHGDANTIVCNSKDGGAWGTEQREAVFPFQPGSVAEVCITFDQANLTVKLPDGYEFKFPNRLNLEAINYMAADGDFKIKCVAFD
T3 sequence (P26447 whole entry): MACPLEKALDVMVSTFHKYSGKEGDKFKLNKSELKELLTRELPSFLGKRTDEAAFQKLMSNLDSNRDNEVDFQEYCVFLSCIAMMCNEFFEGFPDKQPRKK

| Kd (CaM; [1]) | Kd (Gal-1; H12 library) | Kd (S100A4; H12 library) | Kd (S100B; H12 library) | Kd (CaM; [2]) | Kd (S100A4; H14 library) | Kd (S100B; H14 library) | Kd (Gal-1; H14 library) | Compound | Kd (CaM) |
| --- | --- | --- | --- | --- | --- | --- | --- | --- | --- |
| 236 µM | 120 µM | 345 µM | 29 µM |  |  |  |  | CC(C)C[C@@H](CC(=O)N[C@H]1CCC[C@@H]1C(=O)N[C@H]1CCC[C@@H]1C(=O)N[C@@H](CCCNC(=N)N)CC(=O)N[C@H]1CCC[C@@H]1C(=O)N[C@H]1CCC[C@@H]1C(N)=O)NC(=O)[C@H]1CCC[C@@H]1NC(=O)[C@H]1CCC[C@@H]1N [H12 LR] |  |
| 67 µM | 415 µM | 131 µM | 46 µM |  |  |  |  | CC(C)C[C@@H](CC(=O)N[C@H]1CCC[C@@H]1C(=O)N[C@H]1CCC[C@@H]1C(N)=O)NC(=O)[C@H]1CCC[C@@H]1NC(=O)[C@H]1CCC[C@@H]1NC(=O)C[C@H](CC(C)C)NC(=O)[C@H]1CCC[C@@H]1NC(=O)[C@H]1CCC[C@@H]1N [H12 LL] |  |
| 157 µM | 170 µM | 207 µM | 46 µM |  |  |  |  | CC(C)[C@@H](CC(=O)N[C@H]1CCC[C@@H]1C(=O)N[C@H]1CCC[C@@H]1C(N)=O)NC(=O)[C@H]1CCC[C@@H]1NC(=O)[C@H]1CCC[C@@H]1NC(=O)C[C@H](Cc1ccccc1)NC(=O)[C@H]1CCC[C@@H]1NC(=O)[C@H]1CCC[C@@H]1N [H12 FV] |  |
|  |  |  |  | 22 µM | 85 µM | 80 µM |  | CC[C@H](C)[C@@H](CC(=O)N[C@H]1CCCC[C@@H]1C(N)=O)NC(=O)[C@H]1CCCC[C@@H]1NC(=O)[C@H]1CCCC[C@@H]1NC(=O)C[C@H](CCCCN)NC(=O)[C@H]1CCCC[C@@H]1N [H14 KI] |  |
| 464 µM | 201 µM | 335 µM | 96 µM |  |  |  |  | CSCC[C@@H](CC(=O)N[C@H]1CCC[C@@H]1C(=O)N[C@H]1CCC[C@@H]1C(N)=O)NC(=O)[C@H]1CCC[C@@H]1NC(=O)[C@H]1CCC[C@@H]1NC(=O)C[C@H](CCCNC(=N)N)NC(=O)[C@H]1CCC[C@@H]1NC(=O)[C@H]1CCC[C@@H]1N [H12 RM] |  |
| 164 µM | 469 µM | 190 µM | 92 µM |  |  |  |  | CC[C@H](C)[C@@H](CC(=O)N[C@H]1CCC[C@@H]1C(=O)N[C@H]1CCC[C@@H]1C(N)=O)NC(=O)[C@H]1CCC[C@@H]1NC(=O)[C@H]1CCC[C@@H]1NC(=O)C[C@@H](NC(=O)[C@H]1CCC[C@@H]1NC(=O)[C@H]1CCC[C@@H]1N)C(C)C [H12 VI] |  |
| 30 µM |  | 153 µM | 28 µM |  |  |  |  | NC(=O)[C@H]1CCC[C@@H]1NC(=O)[C@H]1CCC[C@@H]1NC(=O)C[C@H](Cc1c[nH]c2ccccc12)NC(=O)[C@H]1CCC[C@@H]1NC(=O)[C@H]1CCC[C@@H]1NC(=O)C[C@H](Cc1ccc(O)cc1)NC(=O)[C@H]1CCC[C@@H]1NC(=O)[C@H]1CCC[C@@H]1N [H12 YW] |  |
| 83 µM |  | 183 µM | 38 µM |  |  |  |  | CC(C)[C@@H](CC(=O)N[C@H]1CCC[C@@H]1C(=O)N[C@H]1CCC[C@@H]1C(N)=O)NC(=O)[C@H]1CCC[C@@H]1NC(=O)[C@H]1CCC[C@@H]1NC(=O)C[C@H](Cc1c[nH]c2ccccc12)NC(=O)[C@H]1CCC[C@@H]1NC(=O)[C@H]1CCC[C@@H]1N [H12 WV] |  |
| 164 µM | 469 µM | 190 µM | 92 µM |  |  |  |  | CC(C)C[C@@H](CC(=O)N[C@H]1CCC[C@@H]1C(=O)N[C@H]1CCC[C@@H]1C(N)=O)NC(=O)[C@H]1CCC[C@@H]1NC(=O)[C@H]1CCC[C@@H]1NC(=O)C[C@@H](NC(=O)[C@H]1CCC[C@@H]1NC(=O)[C@H]1CCC[C@@H]1N)C(C)C [H12 VL] |  |
| 381 µM | 198 µM | 400 µM | 89 µM |  |  |  |  | N=C(N)NCCC[C@@H](CC(=O)N[C@H]1CCC[C@@H]1C(=O)N[C@H]1CCC[C@@H]1C(=O)N[C@H](CC(=O)N[C@H]1CCC[C@@H]1C(=O)N[C@H]1CCC[C@@H]1C(N)=O)Cc1ccc(O)cc1)NC(=O)[C@H]1CCC[C@@H]1NC(=O)[C@H]1CCC[C@@H]1N [H12 RY] |  |
|  | 226 µM | 422 µM | 133 µM |  |  |  |  | CC(C)[C@@H](CC(=O)N[C@H]1CCC[C@@H]1C(=O)N[C@H]1CCC[C@@H]1C(N)=O)NC(=O)[C@H]1CCC[C@@H]1NC(=O)[C@H]1CCC[C@@H]1NC(=O)C[C@H](CCCNC(=N)N)NC(=O)[C@H]1CCC[C@@H]1NC(=O)[C@H]1CCC[C@@H]1N [H12 RV] |  |
|  | 402 µM | 180 µM | 81 µM |  |  |  |  | CC(C)C[C@@H](CC(=O)N[C@H]1CCC[C@@H]1C(=O)N[C@H]1CCC[C@@H]1C(N)=O)NC(=O)[C@H]1CCC[C@@H]1NC(=O)[C@H]1CCC[C@@H]1NC(=O)C[C@H](Cc1ccc(O)cc1)NC(=O)[C@H]1CCC[C@@H]1NC(=O)[C@H]1CCC[C@@H]1N [H12 YL] |  |
|  |  | 192 µM | 59 µM |  |  |  |  | NC(=O)[C@H]1CCC[C@@H]1NC(=O)[C@H]1CCC[C@@H]1NC(=O)C[C@H](Cc1ccc(O)cc1)NC(=O)[C@H]1CCC[C@@H]1NC(=O)[C@H]1CCC[C@@H]1NC(=O)C[C@H](Cc1ccccc1)NC(=O)[C@H]1CCC[C@@H]1NC(=O)[C@H]1CCC[C@@H]1N [H12 FY] |  |
| 42 µM |  | 98 µM | 20 µM |  |  |  |  | CSCC[C@@H](CC(=O)N[C@H]1CCC[C@@H]1C(=O)N[C@H]1CCC[C@@H]1C(N)=O)NC(=O)[C@H]1CCC[C@@H]1NC(=O)[C@H]1CCC[C@@H]1NC(=O)C[C@H](Cc1c[nH]c2ccccc12)NC(=O)[C@H]1CCC[C@@H]1NC(=O)[C@H]1CCC[C@@H]1N [H12 WM] |  |
| 30 µM |  | 153 µM | 28 µM |  |  |  |  | NC(=O)[C@H]1CCC[C@@H]1NC(=O)[C@H]1CCC[C@@H]1NC(=O)C[C@H](Cc1ccc(O)cc1)NC(=O)[C@H]1CCC[C@@H]1NC(=O)[C@H]1CCC[C@@H]1NC(=O)C[C@H](Cc1c[nH]c2ccccc12)NC(=O)[C@H]1CCC[C@@H]1NC(=O)[C@H]1CCC[C@@H]1N [H12 WY] |  |
| 98 µM |  | 245 µM | 81 µM |  |  |  |  | CSCC[C@@H](CC(=O)N[C@H]1CCC[C@@H]1C(=O)N[C@H]1CCC[C@@H]1C(=O)N[C@H](CC(=O)N[C@H]1CCC[C@@H]1C(=O)N[C@H]1CCC[C@@H]1C(N)=O)CC(C)C)NC(=O)[C@H]1CCC[C@@H]1NC(=O)[C@H]1CCC[C@@H]1N [H12 ML] |  |
| 74 µM |  | 303 µM | 32 µM |  |  |  |  | CSCC[C@@H](CC(=O)N[C@H]1CCC[C@@H]1C(=O)N[C@H]1CCC[C@@H]1C(=O)N[C@H](CC(=O)N[C@H]1CCC[C@@H]1C(=O)N[C@H]1CCC[C@@H]1C(N)=O)Cc1ccccc1)NC(=O)[C@H]1CCC[C@@H]1NC(=O)[C@H]1CCC[C@@H]1N [H12 MF] |  |
| 30 µM |  | 239 µM | 36 µM |  |  |  |  | NC(=O)[C@H]1CCC[C@@H]1NC(=O)[C@H]1CCC[C@@H]1NC(=O)C[C@H](Cc1ccccc1)NC(=O)[C@H]1CCC[C@@H]1NC(=O)[C@H]1CCC[C@@H]1NC(=O)C[C@H](Cc1ccc(O)cc1)NC(=O)[C@H]1CCC[C@@H]1NC(=O)[C@H]1CCC[C@@H]1N [H12 YF] |  |
| 42 µM |  | 170 µM | 26 µM |  |  |  |  | CSCC[C@@H](CC(=O)N[C@H]1CCC[C@@H]1C(=O)N[C@H]1CCC[C@@H]1C(=O)N[C@H](CC(=O)N[C@H]1CCC[C@@H]1C(=O)N[C@H]1CCC[C@@H]1C(N)=O)Cc1c[nH]c2ccccc12)NC(=O)[C@H]1CCC[C@@H]1NC(=O)[C@H]1CCC[C@@H]1N [H12 MW] |  |
|  |  |  |  | 22 µM | 85 µM | 80 µM |  | CC(C)C[C@@H](CC(=O)N[C@H]1CCCC[C@@H]1C(N)=O)NC(=O)[C@H]1CCCC[C@@H]1NC(=O)[C@H]1CCCC[C@@H]1NC(=O)C[C@H](CCCCN)NC(=O)[C@H]1CCCC[C@@H]1N [H14 KL] |  |
| 99 µM |  | 230 µM |  |  |  |  |  | NC(=O)C[C@@H](CC(=O)N[C@H]1CCC[C@@H]1C(=O)N[C@H]1CCC[C@@H]1C(=O)N[C@@H](CO)CC(=O)N[C@H]1CCC[C@@H]1C(=O)N[C@H]1CCC[C@@H]1C(N)=O)NC(=O)[C@H]1CCC[C@@H]1NC(=O)[C@H]1CCC[C@@H]1N [H12 NS] |  |
|  |  |  |  | 90 µM | 337 µM |  |  | NC(=O)C[C@@H](CC(=O)N[C@H]1CCCC[C@@H]1C(N)=O)NC(=O)[C@H]1CCCC[C@@H]1NC(=O)[C@H]1CCCC[C@@H]1NC(=O)C[C@H](Cc1ccccc1)NC(=O)[C@H]1CCCC[C@@H]1N [H14 FN] |  |
|  | 319 µM | 283 µM | 64 µM |  |  |  |  | CC[C@H](C)[C@@H](CC(=O)N[C@H]1CCC[C@@H]1C(=O)N[C@H]1CCC[C@@H]1C(N)=O)NC(=O)[C@H]1CCC[C@@H]1NC(=O)[C@H]1CCC[C@@H]1NC(=O)C[C@H](Cc1ccc(O)cc1)NC(=O)[C@H]1CCC[C@@H]1NC(=O)[C@H]1CCC[C@@H]1N [H12 YI] |  |
|  |  |  |  | 402 µM | 205 µM |  | 326 µM | C[C@@H](CC(=O)N[C@H]1CCCC[C@@H]1C(N)=O)NC(=O)[C@H]1CCCC[C@@H]1NC(=O)[C@H]1CCCC[C@@H]1NC(=O)C[C@H](C)NC(=O)[C@H]1CCCC[C@@H]1N [H14 AA] |  |

| Compound | Kd (CaM; [1]) | Kd (Gal-1; H12 library) | Kd (S100A4; H12 library) | Kd (S100B; H12 library) | Kd (CaM; [2]) | Kd (S100A4; H14 library) | Kd (S100B; H14 library) | Kd (Gal-1; H14 library) | Kd (CaM) |
| --- | --- | --- | --- | --- | --- | --- | --- | --- | --- |
| CSCC[C@@H](CC(=O)N[C@H]1CCC[C@@H]1C(=O)N[C@H]1CCC[C@@H]1C(N)=O)NC(=O)[C@H]1CCC[C@@H]1NC(=O)[C@H]1CCC[C@@H]1NC(=O)C[C@H](Cc1ccccc1)NC(=O)[C@H]1CCC[C@@H]1NC(=O)[C@H]1CCC[C@@H]1N [H12 FM] |  |  | 197 µM | 39 µM |  |  |  |  | 42 µM |
